Results on three compounds are retold here after ChEMBL document CHEMBL1201862, “PubChem BioAssay data set” (2004).

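Briefly, cells in 96-well plates were exposed to five compound concentrations for 48 h, and endpoints were estimated by linear interpolation. Here, GI50 denotes the concentration required for 50% inhibition of growth.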 Activity calls are given as the source filed them. Cut-off read from the data, not from the text of the source: active = GI50 up to about 1.1 µM and inactive = higher.

Some test systems named below: A498; A549; COLO 205; HCC 2998; HCT-116; HOP-62; K562; MDA-N; NCI-H226; NCI-H23; NCI/ADR-RES; OVCAR-4; OVCAR-8; SF-268; SF-539; SK-MEL-5; SNB-75; SW-620; T47D; UACC-62.
Holding throughout (experiment): NCI tumour cell line growth inhibition, 48 h

In the case of `C=C(C)C1CC=C(C)C2(C1)OCC(C)(C)C(C)O2` (stereo not given), the GI50 in the assay on A498 is 14.6 µM (inactive); with A549, 17.3 µM (inactive); with COLO 205, 18.1 µM (inactive); in the assay with HCC 2998, 28.3 µM (inactive); in the assay with HCT-116 it was 16.3 µM (inactive); with HOP-62, 16.6 µM (inactive). The GI50 with K562 is 18.5 µM (inactive); with MDA-N it was 21 µM (inactive); with NCI-H226 it was 18.3 µM (inactive); in the assay on NCI-H23, 20.7 µM (inactive); in the assay on NCI/ADR-RES, 17.9 µM (inactive); in the assay with OVCAR-4, 17.1 µM (inactive). Besides, the GI50 is 16.5 µM (inactive) in the assay with OVCAR-8; 19.8 µM (inactive) with SF-268; 22.2 µM (inactive) in the assay on SF-539; 15.2 µM (inactive) in the assay with SK-MEL-5; 22 µM (inactive) in the assay on SNB-75; 19.1 µM (inactive) in the assay on SW-620. Moreover, the GI50 in the assay with T47D is 18.4 µM (inactive); with UACC-62 it was 15.8 µM (inactive).
On to `O=C(N/N=C/c1ccc([N+](=O)[O-])cc1)Nc1ccc(C(=O)O)cc1`, for which the GI50 is 20.2 µM (inactive) in the assay on A498; 35.3 µM (inactive) in the assay with A549; 23.1 µM (inactive) in the assay with COLO 205; 20.2 µM (inactive) in the assay with HCC 2998; 22.3 µM (inactive) in the assay on HCT-116; 21.6 µM (inactive) in the assay on HOP-62. The GI50 was 13.3 µM (inactive) in the assay on K562; 30.5 µM (inactive) in the assay with MDA-N; 22.2 µM (inactive) in the assay on NCI-H226; 23.2 µM (inactive) in the assay with NCI-H23; 27 µM (inactive) with NCI/ADR-RES; 21.2 µM (inactive) in the assay with OVCAR-4. The GI50 in the assay with OVCAR-8 was 28.6 µM (inactive); in the assay on SF-268, 44 µM (inactive); with SF-539 it was 49.3 µM (inactive); with SK-MEL-5 it was 16.3 µM (inactive); in the assay on SNB-75 it was 46.3 µM (inactive); in the assay on SW-620, 40.9 µM (inactive). Also, the GI50 with T47D is 11 µM (inactive); in the assay with UACC-62, 26.4 µM (inactive).
`O=[N+]([O-])C(=C(Sc1ccccc1)Sc1ccccc1)C(Cl)=C(Cl)Cl`: the GI50 in the assay on A498 is 3.44 µM (inactive); in the assay on A549 it was 2.22 µM (inactive); in the assay with COLO 205, 0.157 µM (active); with HCC 2998, 2.39 µM (inactive); with HCT-116, 0.0597 µM (active); in the assay on HOP-62 it was 1.91 µM (inactive). Also, the GI50 in the assay with K562 is 0.0923 µM (active); in the assay with MDA-N, 0.23 µM (active); in the assay on NCI-H226, 0.614 µM (active); in the assay with NCI-H23, 1.24 µM (inactive); in the assay with NCI/ADR-RES, 0.652 µM (active); in the assay with OVCAR-4, 0.401 µM (active). For the same compound, the GI50 in the assay on OVCAR-8 is 0.23 µM (active); with SF-268 it was 2 µM (inactive); in the assay with SF-539, 2.13 µM (inactive); with SK-MEL-5, 1.69 µM (inactive); in the assay with SNB-75, 4.54 µM (inactive); in the assay on SW-620, < 0.0391 µM (active). Further, the GI50 in the assay on T47D was 0.278 µM (active); in the assay on UACC-62, 0.75 µM (active).
